Assay results published in US20250090540A1, “PI3K-ALPHA INHIBITORS AND METHODS OF USE THEREOF” (Relay Therapeutics, Inc., priority 2021, published 2025).
pIC50: −log10 of the molar value.

These compounds were tested against H1047R PIK3CA enzyme (Homo sapiens, UniProt P42336, H1047R) (assay: ADP-Glo Biochemical PIK3CA Kinase Assay). Conditions: ADP-Glo biochemical PIK3CA kinase assay.
Chain of H1047R PIK3CA enzyme (P42336 whole entry H1047R): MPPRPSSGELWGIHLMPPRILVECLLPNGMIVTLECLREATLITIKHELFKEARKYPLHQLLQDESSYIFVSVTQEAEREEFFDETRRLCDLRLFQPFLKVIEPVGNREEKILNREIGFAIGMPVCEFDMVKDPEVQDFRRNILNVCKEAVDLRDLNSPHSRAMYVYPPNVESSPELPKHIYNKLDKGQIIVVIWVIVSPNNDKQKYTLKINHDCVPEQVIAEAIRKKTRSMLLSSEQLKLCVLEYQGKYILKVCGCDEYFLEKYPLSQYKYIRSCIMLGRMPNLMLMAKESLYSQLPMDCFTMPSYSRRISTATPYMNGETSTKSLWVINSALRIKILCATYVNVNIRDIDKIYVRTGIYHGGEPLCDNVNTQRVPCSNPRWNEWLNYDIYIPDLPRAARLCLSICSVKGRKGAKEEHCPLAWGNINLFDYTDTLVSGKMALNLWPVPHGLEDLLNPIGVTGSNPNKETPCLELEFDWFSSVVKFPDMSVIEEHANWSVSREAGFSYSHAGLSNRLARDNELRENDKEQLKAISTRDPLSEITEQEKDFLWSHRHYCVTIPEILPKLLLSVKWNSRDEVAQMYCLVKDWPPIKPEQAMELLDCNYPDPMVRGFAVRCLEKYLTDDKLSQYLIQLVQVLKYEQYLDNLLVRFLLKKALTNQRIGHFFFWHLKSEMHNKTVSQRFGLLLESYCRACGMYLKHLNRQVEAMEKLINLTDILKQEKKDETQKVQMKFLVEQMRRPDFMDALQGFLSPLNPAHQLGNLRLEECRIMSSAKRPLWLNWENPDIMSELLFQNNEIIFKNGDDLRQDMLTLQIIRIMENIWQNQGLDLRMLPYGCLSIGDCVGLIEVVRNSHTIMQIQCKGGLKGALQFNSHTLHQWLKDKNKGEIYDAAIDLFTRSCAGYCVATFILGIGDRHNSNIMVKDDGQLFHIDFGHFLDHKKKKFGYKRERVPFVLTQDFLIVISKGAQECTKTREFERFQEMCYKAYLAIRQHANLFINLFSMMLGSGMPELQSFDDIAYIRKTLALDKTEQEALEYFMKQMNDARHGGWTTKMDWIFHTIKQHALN
Chain of H1047R PIK3CA enzyme (P27986 whole entry partner): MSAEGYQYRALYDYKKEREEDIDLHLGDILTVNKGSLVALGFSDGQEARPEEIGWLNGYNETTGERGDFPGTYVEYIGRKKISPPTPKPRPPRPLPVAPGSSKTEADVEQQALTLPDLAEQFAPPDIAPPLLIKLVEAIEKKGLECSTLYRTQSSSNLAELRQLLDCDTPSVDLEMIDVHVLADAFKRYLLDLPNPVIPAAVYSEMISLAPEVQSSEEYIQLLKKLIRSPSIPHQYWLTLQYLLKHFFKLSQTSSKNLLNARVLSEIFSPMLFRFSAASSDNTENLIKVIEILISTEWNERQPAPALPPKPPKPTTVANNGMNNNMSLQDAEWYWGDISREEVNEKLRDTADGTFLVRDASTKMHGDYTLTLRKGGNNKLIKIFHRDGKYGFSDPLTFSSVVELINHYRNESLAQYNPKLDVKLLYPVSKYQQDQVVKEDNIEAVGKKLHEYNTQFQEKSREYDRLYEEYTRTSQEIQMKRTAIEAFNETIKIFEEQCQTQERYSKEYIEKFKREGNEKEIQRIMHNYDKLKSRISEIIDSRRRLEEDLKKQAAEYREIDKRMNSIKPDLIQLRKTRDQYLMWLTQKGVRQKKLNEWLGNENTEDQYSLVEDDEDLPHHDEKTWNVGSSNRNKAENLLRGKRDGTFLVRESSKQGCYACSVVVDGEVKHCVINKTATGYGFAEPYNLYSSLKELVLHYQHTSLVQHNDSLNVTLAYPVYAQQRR

Row | Structure (SMILES) | pIC50
1 | CNC(=O)c1cnc(Nc2ccccc2C)c(NC(=O)c2n[nH]c3ccc(C#N)cc23)c1 [I-455] | 4.00 to 5.00
2 | CNC(=O)c1cnc(Nc2ccccc2C)c(NC(=O)c2cc3cccc(Cl)c3s2)c1 [I-456] | 5.00 to 6.00
3 | CNC(=O)c1cnc(Nc2ccccc2C)c(NC(=O)c2nn(C(C)C)c3ccccc23)c1 [I-457] | 4.00 to 5.00
4 | CNC(=O)c1cnc(Nc2ccccc2C)c(NC(=O)CCc2c[nH]c3ccc(F)cc23)c1 [I-459] | 4.00 to 5.00
5 | CNC(=O)c1cnc(Nc2ccccc2C)c(NC(=O)c2cc(Br)cc3ccccc23)c1 [I-461] | 4.00 to 5.00
6 | CNC(=O)c1cnc(Nc2ccccc2C)c(NC(=O)c2cc3c(Cl)cccn3c2)c1 [I-462] | 4.00 to 5.00
7 | CNC(=O)c1cnc(Nc2ccccc2C)c(NC(=O)c2onc3c2CCCC3)c1 [I-463] | 4.00 to 5.00
8 | CNC(=O)c1cnc(Nc2ccccc2C)c(NC(=O)C2CCCC3CCCCC32)c1 (stereo not drawn) [I-464] | 4.00 to 5.00
9 | CCc1c(Cl)c(C(=O)Nc2cc(C(=O)NC)cnc2Nc2ccccc2C)nn1C [I-465] | 4.00 to 5.00
10 | CNC(=O)c1cnc(Nc2ccccc2C)c(NC(=O)c2cccc(C#N)c2Cl)c1 [I-466] | 4.00 to 5.00
11 | CNC(=O)c1cnc(Nc2ccccc2C)c(NC(=O)Cc2c[nH]c3cc(F)c(F)cc23)c1 [I-467] | 4.00 to 5.00
12 | CNC(=O)c1cnc(Nc2ccccc2C)c(NC(=O)c2cnc3ccc(F)cn23)c1 [I-469] | 4.00 to 5.00
13 | CNC(=O)c1cnc(Nc2ccccc2C)c(NC(=O)c2cc(Cl)cc3cccnc23)c1 [I-470] | 4.00 to 5.00
14 | CNC(=O)c1cnc(Nc2ccccc2C)c(NC(=O)C(C)Cc2ccc(F)cc2)c1 (stereo not drawn) [I-471] | 4.00 to 5.00
15 | CNC(=O)c1cnc(Nc2ccccc2C)c(NC(=O)c2nn(C)c3c2CCC3)c1 [I-472] | 4.00 to 5.00
16 | CNC(=O)c1cnc(Nc2ccccc2C)c(NC(=O)c2cn[nH]c2-c2ccc(F)cc2)c1 [I-473] | 4.00 to 5.00
17 | CNC(=O)c1cnc(Nc2ccccc2C)c(NC(=O)c2cccc3c2OC(C)(C)CC3)c1 [I-474] | 4.00 to 5.00
18 | CNC(=O)c1cnc(Nc2ccccc2C)c(NC(=O)C2(c3cccc(F)c3)CC2)c1 [I-475] | 5.00 to 6.00
19 | CNC(=O)c1cnc(Nc2ccccc2C)c(NC(=O)c2cc(Br)cc(C(C)C)c2)c1 [I-476] | 4.00 to 5.00
20 | CNC(=O)c1cnc(Nc2ccccc2C)c(NC(=O)C2CCc3cccc(Cl)c32)c1 (stereo not drawn) [I-477] | 4.00 to 5.00
21 | CNC(=O)c1cnc(Nc2ccccc2C)c(NC(=O)c2cc(C)cc(OC)c2)c1 [I-478] | 4.00 to 5.00

Row | Structure (SMILES) | pIC50
22 | CNC(=O)c1cnc(Nc2ccccc2C)c(NC(=O)c2ccc(F)c(C)c2Cl)c1 [I-479] | 4.00 to 5.00
23 | CNC(=O)c1cnc(Nc2ccccc2C)c(NC(=O)c2cn(C)c3ncccc23)c1 [I-480] | 4.00 to 5.00
24 | CNC(=O)c1cnc(Nc2ccccc2C)c(NC(=O)C2(c3ccc(F)c(F)c3)CC2)c1 [I-481] | 4.00 to 5.00
25 | CNC(=O)c1cnc(Nc2ccccc2C)c(NC(=O)CC(C)Oc2ccccc2)c1 (stereo not drawn) [I-482] | 4.00 to 5.00
26 | CNC(=O)c1cnc(Nc2ccccc2C)c(NC(=O)c2coc3cccc(Br)c23)c1 [I-483] | 4.00 to 5.00
27 | CNC(=O)c1cnc(Nc2ccccc2C)c(NC(=O)c2ccc(C(F)F)cn2)c1 [I-484] | 4.00 to 5.00
28 | CNC(=O)c1cnc(Nc2ccccc2C)c(NC(=O)c2cc3c(Br)cccc3[nH]2)c1 [I-485] | 4.00 to 5.00
29 | Cc1ccccc1Nc1ncc(C(=O)NC2CCOc3ccccc32)cc1NC(=O)c1csc2ccccc12 (stereo not drawn) [I-487] | 4.00 to 5.00
30 | CNC(=O)c1cnc(Nc2ccccc2C)c(NC(=O)c2cc3cc(F)ccc3o2)c1 [I-488] | 4.00 to 5.00
31 | CNC(=O)c1cnc(Nc2ccccc2C)c(NC(=O)c2cc(C)c(F)c(C)c2)c1 [I-489] | 5.00 to 6.00
32 | CNC(=O)c1cnc(Nc2ccccc2C)c(NC(=O)c2ccc3occ(Cl)c3c2)c1 [I-490] | 4.00 to 5.00
33 | CNC(=O)c1cnc(Nc2ccccc2C)c(NC(=O)c2cc(C)cc(F)c2F)c1 [I-491] | 4.00 to 5.00
34 | CNC(=O)c1cnc(Nc2ccccc2C)c(NC(=O)c2ncsc2C(F)(F)F)c1 [I-492] | 4.00 to 5.00
35 | CNC(=O)c1cnc(Nc2ccccc2C)c(NC(=O)C2CCC(F)(F)CC2)c1 [I-493] | 4.00 to 5.00
36 | CNC(=O)c1cnc(Nc2ccccc2C)c(NC(=O)c2cccc3ccoc23)c1 [I-494] | 4.00 to 5.00
37 | CNC(=O)c1cnc(Nc2ccccc2C)c(NC(=O)c2cc(F)ccc2OC(F)(F)F)c1 [I-495] | 4.00 to 5.00
38 | CNC(=O)c1cnc(Nc2ccccc2C)c(NC(=O)CCc2cc(F)ccc2Br)c1 [I-497] | 4.00 to 5.00
39 | Cc1ccccc1Nc1ncc(C(=O)Nc2cnn3cccc(F)c23)cc1NC(=O)c1csc2ccccc12 [I-500] | 4.00 to 5.00
40 | CNC(=O)c1cnc(Nc2ccccc2C)c(NC(=O)Cc2cccc(Br)c2F)c1 [I-501] | 4.00 to 5.00
41 | CNC(=O)c1cnc(Nc2ccccc2C)c(NC(=O)Cc2ccc(F)cc2C(F)(F)F)c1 [I-502] | 4.00 to 5.00
42 | CNC(=O)c1cnc(Nc2ccccc2C)c(NC(=O)C2(c3cccc(Br)c3)CC2)c1 [I-503] | 4.00 to 5.00

Row | Structure (SMILES) | pIC50
43 | CNC(=O)c1cnc(Nc2ccccc2C)c(NC(=O)c2ccc3c(c2)CCN3C)c1 [I-504] | 4.00 to 5.00
44 | CNC(=O)c1cnc(Nc2ccccc2C)c(NC(=O)c2cc3ccccc3n2C)c1 [I-505] | 4.00 to 5.00
45 | CNC(=O)c1cnc(Nc2ccccc2C)c(NC(=O)c2cc3c(Cl)cc(Cl)cc3[nH]2)c1 [I-507] | 5.00 to 6.00
46 | CNC(=O)c1cnc(Nc2ccccc2C)c(NC(=O)c2cn3cccc(Br)c3n2)c1 [I-509] | 4.00 to 5.00
47 | Cc1ccccc1Nc1ncc(C(=O)NCC2(C#N)CCCC2)cc1NC(=O)c1csc2ccccc12 [I-511] | 4.00 to 5.00
48 | CCOc1c(F)c(F)cc(C(=O)Nc2cc(C(=O)NC)cnc2Nc2ccccc2C)c1F [I-512] | 4.00 to 5.00
49 | CNC(=O)c1cnc(Nc2ccccc2C)c(NC(=O)C2(c3cccc(Cl)c3)CC2)c1 [I-513] | 4.00 to 5.00
50 | CNC(=O)c1cnc(Nc2ccccc2C)c(NC(=O)c2c[nH]c3ccc(Cl)cc23)c1 [I-514] | 4.00 to 5.00
51 | CNC(=O)c1cnc(Nc2ccccc2C)c(NC(=O)c2ccc(Br)c3cccnc23)c1 [I-516] | 4.00 to 5.00
52 | CNC(=O)c1cnc(Nc2ccccc2C)c(NC(=O)CCc2cc(Cl)ccc2Cl)c1 [I-517] | 4.00 to 5.00
53 | CNC(=O)c1cnc(Nc2ccccc2C)c(NC(=O)c2cccc3ccn(C)c23)c1 [I-518] | 4.00 to 5.00
54 | Cc1ccccc1Nc1ncc(C(=O)Nc2c3c(nn2C)CCC3)cc1NC(=O)c1csc2ccccc12 [I-521] | 4.00 to 5.00
55 | CNC(=O)c1cnc(Nc2ccccc2C)c(NC(=O)c2[nH]c3ccccc3c2Br)c1 [I-522] | 4.00 to 5.00
56 | CNC(=O)c1cnc(Nc2ccccc2C)c(NC(=O)c2ccc3c(ccn3C)c2)c1 [I-523] | 4.00 to 5.00
57 | CNC(=O)c1cnc(Nc2ccccc2C)c(NC(=O)c2ccc(C(F)(F)F)n2C)c1 [I-524] | 4.00 to 5.00
58 | CNC(=O)c1cnc(Nc2ccccc2C)c(NC(=O)c2c[nH]c3cccc(Cl)c23)c1 [I-528] | 4.00 to 5.00
59 | CNC(=O)c1cnc(Nc2ccccc2C)c(NC(=O)c2cccc3c2OC(C)(C)C3)c1 [I-529] | 4.00 to 5.00
60 | Cc1ccccc1Nc1ncc(C(=O)NCC2CCC(F)(F)C2)cc1NC(=O)c1csc2ccccc12 (stereo not drawn) [I-531] | 4.00 to 5.00
61 | Cc1ccccc1Nc1ncc(C(=O)N2CC(C)(F)C2)cc1NC(=O)c1csc2ccccc12 [I-536] | 5.00 to 6.00
62 | CNC(=O)c1cnc(Nc2ccccc2C)c(NC(=O)c2ccc(Cl)c(C)c2F)c1 [I-537] | 4.00 to 5.00
63 | COC1CN(C(=O)c2cnc(Nc3ccccc3C)c(NC(=O)c3csc4ccccc34)c2)C1 [I-541] | 5.00 to 6.00
